Some test systems named below: A498 renal; K-562 leukemia; MCF7 breast; MDA-MB-435; NCI/ADR-RES ovarian; OVCAR-3 ovarian; OVCAR-5 ovarian; OVCAR-8 ovarian; SF-295 CNS; SW-620 colon; TK-10 renal; SF-268 CNS; HCC-2998 colon; MDA-MB-231 breast.
Common to all, as to experiment: NCI tumour cell line growth inhibition, 48 h

Values joined by “and” are separate entries in the source; they are usually repeats but may differ in a detail not shown here. Equal entries are not always repeated.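 Method: 48-hour compound exposure of cells in 96-well plates, five concentrations, linear interpolation of endpoints. Abbreviation: GI50, concentration required for 50% inhibition of growth. TGI marks complete inhibition of growth.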

Drawing on PubChem BioAssay (NCI), this text covers TGI and GI50 for twelve molecules.

`COC(=O)CNCC1OC2OC(C)(C)OC2C1N=[N+]=[N-]` (stereo not drawn): the TGI with A498 renal, in the experiment with K-562 leukemia, in the experiment on MCF7 breast, with MDA-MB-435, with NCI/ADR-RES ovarian and with OVCAR-3 ovarian was more than 100 µM each time. For the same molecule, the TGI in the experiment with OVCAR-5 ovarian, with OVCAR-8 ovarian, with SF-295 CNS, in the experiment on SW-620 colon and in the experiment on TK-10 renal was more than 100 µM in each case.
Regarding `Cc1ccc(F)c2c(=O)cc(-c3ccccc3)[nH]c12`, the TGI in the experiment on K-562 leukemia, with OVCAR-5 ovarian, with OVCAR-8 ovarian, in the experiment on SF-268 CNS, with SF-295 CNS and in the experiment on SW-620 colon was more than 100 µM throughout. In the experiment with TK-10 renal, this molecule yielded a TGI of more than 100 µM.
For `Cc1nc2nn(C)cc2c(=O)n1/N=C/c1ccccc1`, the TGI in the experiment with A498 renal, in the experiment on HCC-2998 colon, in the experiment on K-562 leukemia, with OVCAR-3 ovarian, in the experiment with OVCAR-5 ovarian and in the experiment on OVCAR-8 ovarian was more than 100 µM in each case. In addition, the TGI in the experiment with SF-268 CNS, in the experiment on SF-295 CNS, in the experiment on SW-620 colon and in the experiment with TK-10 renal was more than 100 µM each time.
For the molecule `N#Cc1c(N2CCOCC2)ncn(-c2ccc(Cl)cc2)c1=O`, the TGI in the experiment with A498 renal, in the experiment with HCC-2998 colon, in the experiment with K-562 leukemia, in the experiment on MCF7 breast, with MDA-MB-435 and with NCI/ADR-RES ovarian was more than 100 µM in each case. Besides, the TGI in the experiment on OVCAR-3 ovarian, with OVCAR-5 ovarian, in the experiment with OVCAR-8 ovarian, with SF-295 CNS and in the experiment on SW-620 colon was more than 100 µM each time.
Regarding `O=C1/C(=C/c2ccc(Cl)cc2)Sc2scc(-c3cccc([N+](=O)[O-])c3)[n+]21`, the TGI in the experiment with HCC-2998 colon is 10.5 µM; with K-562 leukemia, 2.24 µM; with MCF7 breast, more than 40.7 µM; with MDA-MB-231 breast, more than 32.1 µM; in the experiment on MDA-MB-435, 13.2 µM; in the experiment on OVCAR-3 ovarian, 36 µM. Also, the TGI in the experiment with OVCAR-5 ovarian was determined as 51.3 µM; with SF-268 CNS it was 14.6 µM; in the experiment with SF-295 CNS, 17.9 µM; in the experiment on SW-620 colon, 3.82 µM; with TK-10 renal, 5.07 µM.
With `CCSC12CC3c4cccc5c4C(CN5C(=O)c4ccccc4)CC3(O1)N(C)C2=O` (stereo not drawn), the TGI with A498 renal, in the experiment on K-562 leukemia, in the experiment with MDA-MB-231 breast, in the experiment with MDA-MB-435, in the experiment with NCI/ADR-RES ovarian and in the experiment with OVCAR-3 ovarian was more than 100 µM in each case. The TGI in the experiment on OVCAR-5 ovarian, in the experiment on OVCAR-8 ovarian, in the experiment with SF-268 CNS, in the experiment with SF-295 CNS, with SW-620 colon and in the experiment on TK-10 renal was more than 100 µM throughout.
Take `NCCCCCNOCCCN`: the TGI in the experiment with HCC-2998 colon, in the experiment on K-562 leukemia, with MDA-MB-231 breast, with MDA-MB-435, with NCI/ADR-RES ovarian and with OVCAR-3 ovarian was more than 100 µM each time. Besides, the TGI with OVCAR-5 ovarian, in the experiment with OVCAR-8 ovarian, in the experiment on SF-268 CNS, with SF-295 CNS, in the experiment with SW-620 colon and in the experiment on TK-10 renal was more than 100 µM throughout.
Regarding `CC[C@H](C)[C@H]1NC(=O)[C@@H](NC(=O)[C@@H](CC(C)C)N(C)C(=O)C2CCCN2C(=O)[C@H](C)O)[C@@H](C)OC(=O)[C@H](Cc2ccccc2)N(C)C(=O)[C@@H]2CCCN2C(=O)[C@H](CC(C)C)NC(=O)[C@@H](C)C(=O)[C@H](C(C)C)OC(=O)C[C@@H]1O` (stereo partly drawn), the TGI in the experiment on A498 renal was 0.0508 µM; with HCC-2998 colon, 0.00678 µM; in the experiment on K-562 leukemia, more than 62.5 µM; in the experiment on MCF7 breast, 0.0641 µM; in the experiment with NCI/ADR-RES ovarian, 1.6 µM; in the experiment with OVCAR-3 ovarian it was 0.0113 µM. The TGI was 0.075 µM in the experiment with OVCAR-5 ovarian; 0.0461 µM in the experiment with OVCAR-8 ovarian; 0.00762 µM in the experiment on SF-268 CNS; 0.0134 µM in the experiment with SF-295 CNS; more than 62.5 µM in the experiment with SW-620 colon; 0.00848 µM in the experiment with TK-10 renal.
With `COc1nc(OC)nc(Sc2ccc(Sc3ccc(Sc4nc(OC)nc(OC)n4)cc3)cc2)n1`, the TGI in the experiment with A498 renal, in the experiment with HCC-2998 colon, with K-562 leukemia, in the experiment with OVCAR-3 ovarian, with OVCAR-5 ovarian and with OVCAR-8 ovarian was more than 100 µM in each case. For the same molecule, the TGI in the experiment with SF-268 CNS, in the experiment on SF-295 CNS, in the experiment with SW-620 colon and in the experiment on TK-10 renal was more than 100 µM throughout.
Take `C(=N/NC1=NCCN1)/c1c2ccccc2c(/C=N\NC2=NCCN2)c2ccccc12`: the TGI with A498 renal was 0.273 µM and 1.8 µM and 2.3 µM; with HCC-2998 colon, 0.439 µM and 0.47 µM and 0.658 µM; with K-562 leukemia, 3.63 µM and 4.43 µM and 1.7 µM; in the experiment with MCF7 breast, 0.788 µM and 3.14 µM and 3.88 µM; with MDA-MB-231 breast, 1.66 µM and 12.5 µM; in the experiment with MDA-MB-435 it was 0.271 µM and 0.477 µM. The TGI is 0.561 µM and 0.449 µM and 1.75 µM with OVCAR-3 ovarian; 1.38 µM and 0.95 µM and 0.793 µM with OVCAR-5 ovarian; 1.32 µM and 2.98 µM and 3.42 µM in the experiment with OVCAR-8 ovarian; 0.558 µM and 0.722 µM and 0.747 µM in the experiment on SF-268 CNS; 1.98 µM and 2.11 µM and 2.71 µM with SF-295 CNS; 4.73 µM and 12.9 µM with TK-10 renal. Besides, the GI50 with MDA-MB-231 breast is 0.459 µM; with MDA-MB-435, 0.155 µM.
As to `CN(C)C(=O)Oc1ccc(C(=S)Nc2ccccc2)cc1Br`, the TGI in the experiment on HCC-2998 colon was more than 100 µM; with K-562 leukemia, more than 100 µM; in the experiment with MCF7 breast, more than 100 µM; with MDA-MB-435, 43.9 µM; with NCI/ADR-RES ovarian, 63.9 µM; in the experiment on OVCAR-3 ovarian, more than 100 µM. The TGI is more than 100 µM with OVCAR-5 ovarian; 39.4 µM in the experiment with OVCAR-8 ovarian; 23.5 µM in the experiment with SF-268 CNS; more than 100 µM with SF-295 CNS; more than 100 µM in the experiment with SW-620 colon.
With `CCOC(=O)c1c(NC(=O)c2ccc(Br)cc2)sc2c1CCCC2`, the TGI in the experiment with A498 renal, with K-562 leukemia, in the experiment with MCF7 breast, with MDA-MB-231 breast, in the experiment on MDA-MB-435 and in the experiment with OVCAR-3 ovarian was more than 100 µM throughout. Also, the TGI with OVCAR-5 ovarian, in the experiment on OVCAR-8 ovarian, in the experiment with SF-268 CNS, in the experiment on SF-295 CNS, in the experiment with SW-620 colon and in the experiment with TK-10 renal was more than 100 µM each time.
